Assay results reported in PubChem BioAssay AID2060905 (Molecular Pharmacology Branch, DTP, NCI, 2025).
Values belong to the compound of their own block, whether it stands above or below them.

Test system: 282377-053-R-J1-PDC complex spheroid viability
Assay: Anticancer human tumor 282377-053-R-J1-PDC patient-derived colon adenocarcinoma cell line growth inhibition [RAS]
Settings: for IC50: curve of first compound; for viability, T/C: stronger effect = lower value
In short: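 Multi-cell-type spheroids: tumor cells plus HUVEC endothelial cells and mesenchymal stem cells. RAS-pathway inhibitors were combined with targeted agents, each dosed in half-log steps down from clinical Cmax, or from 10 microM when Cmax was unknown.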

[1] = second compound 0.000949 µM, first compound 0.0316 µM
[2] = second compound 0.000949 µM, first compound 0.1 µM
[3] = second compound 0.000949 µM, first compound 0.316 µM
[4] = second compound 0.000949 µM, first compound 1 µM
[5] = second compound 0.003 µM, first compound 0.0316 µM
[6] = second compound 0.003 µM, first compound 0.1 µM
[7] = second compound 0.003 µM, first compound 0.316 µM
[8] = second compound 0.003 µM, first compound 1 µM
[9] = second compound 0.00949 µM, first compound 0.0316 µM
[10] = second compound 0.00949 µM, first compound 0.1 µM
[11] = second compound 0.00949 µM, first compound 0.316 µM
[12] = second compound 0.00949 µM, first compound 1 µM
[13] = second compound 0.03 µM, first compound 0.0316 µM
[14] = second compound 0.03 µM, first compound 0.1 µM
[15] = second compound 0.03 µM, first compound 0.316 µM
[16] = second compound 0.03 µM, first compound 1 µM
[17] = second compound 0.0949 µM, first compound 0.0316 µM
[18] = second compound 0.0949 µM, first compound 0.1 µM
[19] = second compound 0.0949 µM, first compound 0.316 µM
[20] = second compound 0.0949 µM, first compound 1 µM
[21] = second compound 0.3 µM, first compound 0.0316 µM
[22] = second compound 0.3 µM, first compound 0.1 µM
[23] = second compound 0.3 µM, first compound 0.316 µM
[24] = second compound 0.3 µM, first compound 1 µM
[25] = second compound 0.000949 µM, first compound 3.16 µM
[26] = second compound 0.000949 µM, first compound 10 µM
[27] = second compound 0.003 µM, first compound 3.16 µM
[28] = second compound 0.003 µM, first compound 10 µM
[29] = second compound 0.00949 µM, first compound 3.16 µM
[30] = second compound 0.00949 µM, first compound 10 µM
[31] = second compound 0.03 µM, first compound 3.16 µM
[32] = second compound 0.03 µM, first compound 10 µM
[33] = second compound 0.0949 µM, first compound 3.16 µM
[34] = second compound 0.0949 µM, first compound 10 µM
[35] = second compound 0.3 µM, first compound 3.16 µM
[36] = second compound 0.3 µM, first compound 10 µM
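Note: spheroids exposed to agents for seven days before readout.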
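Throughout, for viability, T/C: luminescence viability as percent of DMSO vehicle control wells.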

IC50 (second compound 0.000949 µM): > 1 µM | IC50 (second compound 0.003 µM): > 1 µM | IC50 (second compound 0.00949 µM): > 1 µM | IC50 (second compound 0.03 µM): > 1 µM | IC50 (second compound 0.0949 µM): > 1 µM | IC50 (second compound 0.3 µM): > 1 µM
Compound: CCN1CCN(Cc2ccc(Nc3ncc(F)c(-c4cc(F)c5nc(C)n(C(C)C)c5c4)n3)nc2)CC1 + CCn1c(-c2cccnc2C(C)OC)c2c3cc(ccc31)N1CCOC(CC(NC(=O)C(C(C)C)N(C)C(=O)C3(F)CCN(C(=O)C#CC(C)(C)N(C)C)CC3)C(=O)N3CCCC(N3)C(=O)OCC(C)(C)C2)C1
viability, T/C (second compound 0.000949 µM, first compound 0.00316 µM): 117% | viability, T/C (second compound 0.000949 µM, first compound 0.01 µM): 100% | viability, T/C [1]: 104% | viability, T/C [2]: 97.3% | viability, T/C [3]: 137% | viability, T/C [4]: 229% | viability, T/C (second compound 0.003 µM, first compound 0.00316 µM): 137% | viability, T/C (second compound 0.003 µM, first compound 0.01 µM): 113% | viability, T/C [5]: 94.6% | viability, T/C [6]: 99% | viability, T/C [7]: 144% | viability, T/C [8]: 204% | viability, T/C (second compound 0.00949 µM, first compound 0.00316 µM): 111% | viability, T/C (second compound 0.00949 µM, first compound 0.01 µM): 106% | viability, T/C [9]: 122% | viability, T/C [10]: 90.4% | viability, T/C [11]: 156% | viability, T/C [12]: 208% | viability, T/C (second compound 0.03 µM, first compound 0.00316 µM): 104% | viability, T/C (second compound 0.03 µM, first compound 0.01 µM): 99.5% | viability, T/C [13]: 113% | viability, T/C [14]: 110% | viability, T/C [15]: 134% | viability, T/C [16]: 238% | viability, T/C (second compound 0.0949 µM, first compound 0.00316 µM): 102% | viability, T/C (second compound 0.0949 µM, first compound 0.01 µM): 109% | viability, T/C [17]: 120% | viability, T/C [18]: 116% | viability, T/C [19]: 125% | viability, T/C [20]: 250% | viability, T/C (second compound 0.3 µM, first compound 0.00316 µM): 93% | viability, T/C (second compound 0.3 µM, first compound 0.01 µM): 106% | viability, T/C [21]: 87.2% | viability, T/C [22]: 124% | viability, T/C [23]: 160% | viability, T/C [24]: 221%

IC50 (second compound 0.000949 µM): > 10 µM | IC50 (second compound 0.003 µM): > 10 µM | IC50 (second compound 0.00949 µM): > 10 µM | IC50 (second compound 0.03 µM): > 10 µM | IC50 (second compound 0.0949 µM): > 10 µM | IC50 (second compound 0.3 µM): > 10 µM
Compound: Cc1nc(N2CCC3(CC2)COC(C)C3N)c(CO)nc1Sc1ccnc(N)c1Cl (stereo unspecified) + CCn1c(-c2cccnc2C(C)OC)c2c3cc(ccc31)N1CCOC(CC(NC(=O)C(C(C)C)N(C)C(=O)C3(F)CCN(C(=O)C#CC(C)(C)N(C)C)CC3)C(=O)N3CCCC(N3)C(=O)OCC(C)(C)C2)C1
viability, T/C [1]: 81% | viability, T/C [2]: 93.8% | viability, T/C [3]: 89.8% | viability, T/C [4]: 94.2% | viability, T/C [25]: 81.8% | viability, T/C [26]: 80.6% | viability, T/C [5]: 85.8% | viability, T/C [6]: 115% | viability, T/C [7]: 101% | viability, T/C [8]: 85.8% | viability, T/C [27]: 82.1% | viability, T/C [28]: 75.1% | viability, T/C [9]: 111% | viability, T/C [10]: 85.1% | viability, T/C [11]: 89.2% | viability, T/C [12]: 99.7% | viability, T/C [29]: 99.5% | viability, T/C [30]: 110% | viability, T/C [13]: 101% | viability, T/C [14]: 83.8% | viability, T/C [15]: 102% | viability, T/C [16]: 87% | viability, T/C [31]: 84.4% | viability, T/C [32]: 83.4% | viability, T/C [17]: 88.9% | viability, T/C [18]: 96.2% | viability, T/C [19]: 108% | viability, T/C [20]: 103% | viability, T/C [33]: 95.5% | viability, T/C [34]: 105% | viability, T/C [21]: 87.6% | viability, T/C [22]: 103% | viability, T/C [23]: 93% | viability, T/C [24]: 100% | viability, T/C [35]: 90% | viability, T/C [36]: 119%

IC50 (second compound 0.000949 µM): > 10 µM | IC50 (second compound 0.003 µM): > 10 µM | IC50 (second compound 0.00949 µM): > 10 µM | IC50 (second compound 0.03 µM): > 10 µM | IC50 (second compound 0.0949 µM): > 10 µM | IC50 (second compound 0.3 µM): > 10 µM
Compound: NC1c2ccccc2OC12CCN(c1cnc3c(N4CCCc5ncccc54)n[nH]c3n1)CC2 (stereo unspecified) + CCn1c(-c2cccnc2C(C)OC)c2c3cc(ccc31)N1CCOC(CC(NC(=O)C(C(C)C)N(C)C(=O)C3(F)CCN(C(=O)C#CC(C)(C)N(C)C)CC3)C(=O)N3CCCC(N3)C(=O)OCC(C)(C)C2)C1
viability, T/C [1]: 103% | viability, T/C [2]: 104% | viability, T/C [3]: 99.5% | viability, T/C [4]: 101% | viability, T/C [25]: 110% | viability, T/C [26]: 125% | viability, T/C [5]: 101% | viability, T/C [6]: 100% | viability, T/C [7]: 94.7% | viability, T/C [8]: 100% | viability, T/C [27]: 104% | viability, T/C [28]: 103% | viability, T/C [9]: 96.5% | viability, T/C [10]: 104% | viability, T/C [11]: 97.9% | viability, T/C [12]: 114% | viability, T/C [29]: 98.4% | viability, T/C [30]: 71.9% | viability, T/C [13]: 91.9% | viability, T/C [14]: 101% | viability, T/C [15]: 116% | viability, T/C [16]: 94.8% | viability, T/C [31]: 86% | viability, T/C [32]: 110% | viability, T/C [17]: 91.6% | viability, T/C [18]: 123% | viability, T/C [19]: 104% | viability, T/C [20]: 97.9% | viability, T/C [33]: 99% | viability, T/C [34]: 118% | viability, T/C [21]: 92.6% | viability, T/C [22]: 88.4% | viability, T/C [23]: 95.5% | viability, T/C [24]: 96.8% | viability, T/C [35]: 125% | viability, T/C [36]: 141%
